Source: US4358461A, “Antiallergic agent” (Takeda Chemical Industries, Ltd., priority 1980, dated 1982)

Tested on: SRS-A
Assay: Inhibitory action on the generation and release of SRS-A (sensitized guinea pig lung fragment; method of Orange and Moore, SRS-A assayed by method of Brocklehurst)
Type: cell-based, guinea pig (Hartley strain)
Settings: egg albumin antigen
Excerpt: The action of the antiallergic agent of this invention to inhibit the production of SRS-A was investigated by the method of Orange and Moore [J. Immunol.

baicalein phosphate disodium [BPS]
Inhibitory action (percent inhibition of generation and release of SRS-A due to antigen-antibody interaction) (concentration 10 (so in the source)): 18.7 ± 6.6% | Inhibitory action (percent inhibition of generation and release of SRS-A due to antigen-antibody interaction) (concentration 100 (so in the source)): 50.8 ± 10.7%
